Results taken from PubChem BioAssay AID588786 (The Scripps Research Institute Molecular Screening Center, 2011).
Activity calls are given as the source filed them. How the calls were made is not given here.

Target: SARS coronavirus 3C-like protease (3CLpro)
Assay: SARS 3CLpro protease inhibitor potency, late-stage follow-up, biochemical, fluorescence, dose response, set 4 (AID 588786)
Settings: recombinant 3CLpro, fluorogenic peptide cleavage

Row | Compound | IC50
1 | CC(C)(C)NC(=O)C(c1cccnc1)N(C(=O)c1ccco1)c1ccc(OCc2ccccc2)cc1 (stereo not given) | inactive
2 | COc1cccc(Oc2ccc(N(C(=O)c3ccco3)C(C(=O)NC(C)(C)C)c3cccnc3)cc2)c1 (stereo not given) | inactive
3 | CC(C)(C)NC(=O)C(c1cccnc1)N(C(=O)c1ccco1)c1ccc(I)cc1 (stereo not given) | inactive
4 | CC(C)(C)NC(=O)C(c1cccnc1)N(C(=O)c1ccco1)c1ccc(-c2cccn2C(=O)OC(C)(C)C)cc1 (stereo not given) | inactive
5 | Cc1noc(C)c1-c1ccc(N(C(=O)c2ccco2)C(C(=O)NC(C)(C)C)c2cccnc2)cc1 (stereo not given) | inactive
6 | CC(C)(C)c1ccc(N(Cc2cccnc2)C(=O)c2cnc[nH]2)cc1 | inactive
7 | CC(C)(C)NC(=O)C(c1cccnc1)N(C(=O)c1ccco1)c1ccc(-c2cccc(F)c2F)cc1 (stereo not given) | 3.2 µM
8 | CC(C)(C)NC(=O)C(c1cccnc1)N(C(=O)c1ccco1)c1ccc(-c2cccnc2)cc1 (stereo not given) | inactive
9 | CC(C)(C)NC(=O)C(c1cccnc1)N(C(=O)c1ccco1)c1ccc(-c2ccccc2)cc1 (stereo not given) | 2.3 µM
10 | CC(C)(C)NC(=O)C(c1cccnc1)N(C(=O)c1ccco1)c1ccc(-c2cncnc2)cc1 (stereo not given) | 4.5 µM
